What was measured:
[1] = cited from earlier work
P2Y12 = P2Y12 (Homo sapiens, UniProt Q9H244); conditions: cited from earlier work
TICA0072 Fab = assay: HTRF competition binding selectivity assay, TICA0072 His-Fab; parameters: species or system human; conditions: second series (Table 3), DMSO normalised; read-out: IC50 in competition binding selectivity studies, TICA0072
Method: (§1) Total Binding control wells were set up which contained all of the assay components above except that 5 ul assay buffer was added in place of the test selectivity compound addition. Negative Binding control wells were set up which contained all of the assay components included in the Total Binding control wells except that 5ul assay buffer was added in place of the His-Fab addition. Test compound serial titrations were either ½ or ⅓ depending on the particular experiment and top final assay compound concentrations were optimized on a compound specific basis. The concentration of biotinylated ticagrelor and His-Fab was optimized on a Fab specific basis in separate experiments. For the four Fabs investigated at the end of the lead isolation phase (TICA0010, TICA0049, TICA0053 and TICA0072) the final assay reagent concentrations used are set out in Table 1 below:
(§2) For the two Fabs investigated at the end of the lead optimization phase (TICA0162 and TICA0212) the final assay reagent concentrations used were 5nM biotinylated ticagrelor and 1 nM His Fab in both cases. […] In order to enable subsequent normalization of data to correct for any such vehicle related effects parallel titrations of DMSO alone were included in most experiments in which the final assay DMSO concentrations mirrored those of the test compound serial dilutions. At the end of the set up procedure that assay was incubated for 3hrs at RT before being read on an Envision plate reader using a standard read protocol.
(§3) The negative ratio value used in the calculation of % Delta F was derived from the Negative Binding control wells. % Delta F values were then used to calculate % Specific Binding values according to the equation below: Specific Binding (%)={(Sample Delta F−Negative Binding Delta F)/(Total Binding Delta F−Negative Binding Delta F)}×100
(§4) For standard calculations of % Specific Binding Total Binding Delta F was taken from Total Binding control wells which contained all of the aforementioned components of the assay but without inclusion of any competing test compound.
(§5) In those experiments where DMSO normalization was applied DMSO normalised % Specific Binding was calculated essentially according to the equation above except that in this case Total Binding Delta F was taken from wells containing all of the components in the Total Binding control wells as well as DMSO at a concentration equivalent to that in the relevant sample well.
(§6) In a second series of experiments further selectivity data was generated for TICA0049 and TICA0072 Fabs in which a subset of four of the twelve compounds listed in FIG. 4 were retested along with ticagrelor, TAM and TIM and several adenosine related compounds. Here, in a refinement to the earlier investigations in Table 2, experiments were designed in order to enable normalisation of percent specific binding values to correct for any non-specific vehicle related effects due to DMSO. Example plotted data from this second series of experiments is shown in FIG. 5A-F along with tabulated IC50 values in Table 3.

TICA0049 Fab = assay: HTRF competition binding selectivity assay, TICA0049 His-Fab; parameters: species or system human; conditions: second series (Table 3), DMSO normalised; read-out: IC50 in competition binding selectivity studies, TICA0049
Method: as §1, §2, §3, §4, §5, §6

[2] = Total plasma concentration of ticagrelor and TAM (LC-MS/MS); type: in vivo, mice; conditions: Example 12
Method: Blood samples were collected in tubes with EDTA anticoagulant and centrifuged for 5 min at 10000× g at room temperature to prepare plasma. The plasma concentration of ticagrelor and TAM were determined by protein precipitation and liquid chromatography with tandem mass spectrometry (LC-MS/MS) as described in published method [Sillén H., et al., J Chromatogr B Analyt Technol Biomed Life Sci 2010; 878: 2299-306] with the following deviations. Plasma, 50 μL, was protein precipitated with 180 μl internal standard (D7-ZD6140) in acetonitrile. The liquid chromatographic system and mass spectrometer was an Acquity Ultra Performance LC coupled to a Xevo TQ-S mass spectrometer from Waters. Chromatographic separation was achieved on an Aquity UPLC® BEH C18 column (2.1×50 mm, particle size 1.7 um). Negative electrospray ionization was utilized. Eluent A was water with 10 mmol/L ammonium acetate, pH5 and eluent B was acetonitrile with 10 mmol/L ammonium acetate. Injection volume was 1 to 5 μL and the analytical gradient started with 4% B, increasing to 95% in 1.5 min, remaining until 2.3 min, before returning to initial conditions within 2.4 min followed by 0.3 min re-equilibration. No quality control samples were used in the analysis. The lower limit of quantification (LLOQ) was 0.005 μmol/L and the calibration range was 0.005 to 15.0 μM.
The total plasma concentrations of ticagrelor and TAM in presence of TICA0212/MEDI2452 were determined by adding 1% formic acid (FA: Sample, 1:5) followed by protein precipitation and LC-MS/MS as described above. Formic acid was added to the sample to facilitate dissociation of ticagrelor and TICA0212/MEDI2452.

TICA0162 Fab = assay: HTRF competition binding selectivity assay, TICA0162 His-Fab; parameters: species or system human; conditions: Table 7, DMSO normalised; 5 nM biotinylated ticagrelor, 1 nM His Fab; read-out: IC50 (uM) for inhibition of biotinylated ticagrelor binding to TICA0162 Fab
Method: as §1
as §2, with “protocol. […]” for “protocol.”
as §5

TICA0212 Fab = assay: HTRF competition binding selectivity assay, TICA0212 His-Fab; parameters: species or system human; conditions: Table 7, DMSO normalised; 5 nM biotinylated ticagrelor, 1 nM His Fab; read-out: IC50 (uM) for inhibition of biotinylated ticagrelor binding to TICA0212 Fab
Method: as §1
For the two Fabs investigated at the end of the lead optimization phase (TICA0162 and TICA0212) the final assay reagent concentrations used were 5nM biotinylated ticagrelor and 1 nM His Fab in both cases. […] At the end of the set up procedure that assay was incubated for 3hrs at RT before being read on an Envision plate reader using a standard read protocol. […]

TICA0053 Fab = assay: HTRF competition binding selectivity assay, TICA0053 His-Fab; parameters: species or system human; conditions: first series (Table 2), not DMSO normalised; read-out: IC50 (uM) for inhibition of biotinylated ticagrelor binding to TICA0053 his-Fab
Method: as §1, §2, §3, §4, §5

TICA0010 Fab = assay: HTRF competition binding selectivity assay, TICA0010 His-Fab; parameters: species or system human; conditions: first series (Table 2), not DMSO normalised; read-out: IC50 (uM) for inhibition of biotinylated ticagrelor binding to TICA00l0 his-Fab
Method: as §1, §2, §3, §4, §5

[3] = molecular target: TICA0159 IgG binding to biotinylated ticagrelor; assay: Second generation HTRF epitope competition assay
Method: Purified parent TICA0072 (scFv or Fab) was used as a benchmark in all experiments such that improvements in IC50 measured with optimized variants (scFv or Fab) could be expressed as fold improvements over parent TICA0072. Total Binding Control Wells contained all assay components except that 5 ul assay buffer was added in place of the purified scFv or Fab sample. Negative Binding control wells contained all of the components of the Total Binding control wells except that 5 ul of assay buffer was added in place of the TICA0072 IgG.
In both single point HTS and multipoint IC50 profiling versions of the assay. plates were incubated for 3 hrs at RT before being read on an Envision plate reader using a standard HTRF read protocol in which samples are excited at 337 nm and time resolved fluorescence emission is measured at both 620 nm and 665 nM.
Raw 665 nm and 620 nm counts were used to calculate Delta F (%) and % Specific Binding according to the equations described earlier in Assays 1 and 4, respectively. For multipoint secondary profiling experiments IC50 values were determined using Graphpad Prism software using sigmoidal dose response (variable slope) curve fitting (4 parameter logistic equation).
This assay was used only in multipoint IC50 profiling format (as opposed to HTS format) and was performed essentially identically to the method given in Assay 5 (above) for multipoint IC50 profiling of purified Fab variants in the parent TICA0072 IgG based epitope competition assay. The only difference being that TICA0159 IgG was used in place of TICA0072 IgG at the appropriate point in the assay set up but at the same 16nM final assay concentration. In all other respects this assay was performed exactly as described above in the multipoint secondary profiling version for purified Fab.

[4] = HTRF HTS of periplasmic scFv, Assay 3 versus Assay 1; type: binding; conditions: 30 nM biotinylated ticagrelor, 50-fold excess (1500 nM) unmodified ticagrelor
Text: Using known techniques, a human scFv phage display library was used to generate scFv antibodies, and specific scFvs were isolated from the library in a series of repeated selection cycles on biotinylated ticagrelor with deselection on biotinylated adenosine, essentially as described in Lloyd et al 2009 PEDS 22: 159-168, incorporated herein by reference. A number of individual clones from the round 2 and round 3 selection outputs were selected, seFvs were expressed in the bacterial periplasm and screened for specificity in three parallel biochemical assays. […]
Assays 1, 2, and 3 were performed using the same general techniques and strategy. […] HTRF® (homogeneous time resolved fluorescence) is based upon the principle of TR-FRET (time resolved fluorescence resonance energy transfer). […] Provided the donor and acceptor fluorophores are in sufficiently close proximity (approx. <10 nm), the excitation of the Europium cryptate donor (337 nm) results in a transfer of energy to the XL^665 acceptor which in turn emits a fluorescence signal at 665 nm. […]
Raw 665 nm and 620 nm counts were first converted into 665 nm/620 nm ratio values and subsequently results were expressed as Delta F (%) values. Delta F was calculated according to the following equation: Delta F (%)={((sample 665/620 ratio)−(negative 665/620) ratio))/(negative 665/620 ratio)}×100 […]

P2Y12, sequence (Q9H244 whole entry): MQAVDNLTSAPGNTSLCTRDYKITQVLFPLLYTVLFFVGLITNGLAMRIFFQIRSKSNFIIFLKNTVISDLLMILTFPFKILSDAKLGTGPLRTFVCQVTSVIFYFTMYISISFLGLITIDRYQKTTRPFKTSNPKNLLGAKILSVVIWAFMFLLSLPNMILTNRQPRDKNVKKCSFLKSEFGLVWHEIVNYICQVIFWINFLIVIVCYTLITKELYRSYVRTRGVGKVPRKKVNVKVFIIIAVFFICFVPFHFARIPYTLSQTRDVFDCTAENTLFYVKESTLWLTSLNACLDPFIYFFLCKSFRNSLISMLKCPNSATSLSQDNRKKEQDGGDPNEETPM

Row | IC50 (TICA0072 Fab) [nM] | IC50 (TICA0049 Fab) [nM] | mean total plasma concentration ([2]; end of ticagrelor infusion 300 μg/kg/min 20 min, mice) [µM] | mean total plasma concentration at time of tail cut ([2]; vehicle treated mice, t=30 minutes) [µM] | IC50 (TICA0162 Fab) [µM] | IC50 (TICA0212 Fab) [µM] | IC50 (TICA0053 Fab) [µM] | IC50 (TICA0010 Fab) [µM] | IC50 ([3]; Fab, 16 nM TICA0159 IgG, 1 nM biotinylated ticagrelor) [nM] | Fold Improved ([3]; IC50 relative to parent TICA0072 Fab) | % inhibition of binding observed in Assay 3 versus Assay 1 [4] [%] | Molecule | circulating half-life ([1]; human, in vivo) [h] | concentration as % of the parent ticagrelor concentration ([1]; patients on BRILINTA/BRILIQUE) | P2Y12 antagonist activity (P2Y12)
1 | 483 | 366 | 0.3 | 0.6 | 0.032 | 0.031 | 0.134 | 0.124 |  |  |  | CCCSc1nc(N[C@@H]2C[C@H]2c2ccc(F)c(F)c2)c2nnn([C@@H]3C[C@H](O)[C@@H](O)[C@H]3O)c2n1 [TAM] | 12 | 30-40% | equally effective
2 |  |  |  |  |  |  |  |  | 1710 | 0 | > 90 | TICA0072: parent anti-ticagrelor/TAM antibody; VH SEQ ID NO:32, VL SEQ ID NO:37 (antibody, listed as Homo sapiens, V domains shown) VH: QVQLQESGAEVKKPGSSVRVSCKASGGTFDSYSIHWVRQAPGQGLEWMGGIIPAFGTLSSAQDFQARVTISADKSTSTAYMELSGLRSEDTAVYYCARGSHLYDFWSASHPPNDALAIWGQGTLVTVSS VL: QSVVTQPPSVSAAPGQKVTISCSGSNSDIGNNYVSWYQQLPGTAPKLLIYDNNKRPSGIPDRFSGSKSGTSATLAITGLQAGDEADYYCGTWDISLSAGLFGGGTKVTVL |  |  | 
